Values quoted from earlier work, collected in patent publication US20030008844A1, “Use of sulodexide for the treatment of inflammatory bowel disease” (Keryx Biopharmaceuticals, Inc., priority 2001, published 2003).

What was measured:
[1] = tested on: ulcerative colitis; details: placebo-controlled trial
[2] = tested on: mild to moderate UC; details: oral
[3] = tested on: steroid-dependent chronically active Crohn's disease; details: placebo-controlled trial
[4] = tested on: perianal Crohn's disease; details: uncontrolled trials

## CN1CCCC1c1cccnc1 (stereo not shown) [nicotine, Nicotine]
[1]
  maintaining remission of ulcerative colitis: ineffective

## O=C(O)c1cc(/N=N/c2ccc(S(=O)(=O)Nc3ccccn3)cc2)ccc1O [sulfasalazine]
[2]
  efficacy in treatment of mild to moderate UC: superior to placebo and similar or superior to steroid enemas

## CN(Cc1cnc2nc(N)nc(N)c2n1)c1ccc(C(=O)N[C@@H](CCC(=O)O)C(=O)O)cc1 [methotrexate, Methotrexate]
[3]
  rates of clinical remission: substantially improved

## Cc1ncc([N+](=O)[O-])n1CCO [metronidazole]
[4]
  patients showing improvements: practically all patients showed improvements
